Test results: patent US6352737B1, “Use of nanoscale sterols and sterol esters” (Cognis Deutschland GmbH, priority 1999, dated 2002)

System: radioactive cholesterol
Assay: Hypocholesterolemic effect: content of radioactive cholesterol in blood of rats after oral gelatine capsule
Assay type: in vivo
Settings: male rats, relative to blank group, mean of 10 animals; for Radioactivity After 3 h: blood 3 h after gelatine capsule (5% by weight sterol/ester, 0.5% by weight radioactively marked cholesterol) via stomach probe; for Radioactivity After 6 h: blood 6 h after gelatine capsule via stomach probe; for Radioactivity After 12 h: blood 12 h after gelatine capsule via stomach probe; for Radioactivity After 24 h: blood 24 h after gelatine capsule via stomach probe; for Radioactivity After 48 h: blood 48 h after gelatine capsule via stomach probe
Description: Gelatine capsules (weight ca. 1.5 g) containing 5% by weight β-sitostanol or β-sitostanolester (nanoparticles encapsulated in a gelatine or chitosan matrix and non-nanoscale commercial products) and 0.5% by weight of radioactively marked cholesterol were prepared. To study the hypocholesterolemic effect, male rats (individual weight ca.200 g) were allowed no food overnight. The next day, a size-reduced gelatine capsule was inserted into each test animal via a stomach probe together with a little water containing sodium chloride. After 3, 6, 12, 24 and 48 h, blood was taken from the animals and the content of radioactive cholesterol was determined. The results, which represent the mean value of the measurements of 10 test animals, are set out in Table 2. The figures relating to the reduction in radioactivity are based on a blank group of test animals which were only given gelatine capsules containing 20% by weight of vitamin E and a corresponding quantity of radioactively marked cholesterol. Examples 1 and 2 correspond to the invention, Examples C1 and C2 are intended for comparison.

| SMILES | Radioactivity After 3 h | Radioactivity After 6 h | Radioactivity After 12 h | Radioactivity After 24 h | Radioactivity After 48 h |
| --- | --- | --- | --- | --- | --- |
| CC[C@H](CC[C@@H](C)[C@H]1CC[C@H]2[C@@H]3CC[C@H]4C[C@@H](O)CC[C@]4(C)[C@H]3CC[C@]12C)C(C)C [Example C1, β-Sitostanol] | 93 %-rel. | 83 %-rel. | 75 %-rel. | 50 %-rel. | 32 %-rel. |
| CCCCCCCCCCCCCCCCCC(=O)O[C@H]1CC[C@@]2(C)[C@@H](CC[C@@H]3[C@@H]2CC[C@]2(C)[C@@H]([C@H](C)CC[C@@H](CC)C(C)C)CC[C@@H]32)C1 [Example C2, β-Sitostanyl stearate] | 90 %-rel. | 80 %-rel. | 71 %-rel. | 44 %-rel. | 26 %-rel. |
